What was measured:
[1] = tested on: AS283 human lymphoma xenografts; test: Mouse Study V: xenograft with AS283 implants; type: in vivo, C.B.-17 SCID mice; settings: p=1.0
Method: Six-week-old male SCID mice were implanted with fragments of AS283 human lymphoma tumors. The tumors were allowed to reach 75-198 mg in weight (75-198 mm^3 in size) before the start of treatment. The experiment consisted of two treatment groups and one vehicle-treated control group, with ten animals per group, for a total of 30 mice on the first day of treatment.
TK-112690 was administered by ip injection [twice every 2 days for 5 injections with six hour interval (q6h×2, q2d×5)] at a dosage of 30 mg/kg/injection. MTX was administered by ip injection q2d×5 at a dosage of 5.0 mg/kg/injection three hours after the TK-112690 injection. The control group was treated with both vehicles, which were administered on the corresponding compound schedules.
Six-week-old male C.B.-17 SCID mice were acclimated in the laboratories for seven days prior to experimentation. Thirty-to-forty mg fragments of AS283 human lymphoma tumor were implanted sc in mice near the right flank using a 12-gauge trocar needle and allowed to grow. […]
The sc tumors were measured and the animals were weighed thrice weekly starting the day of the first treatment. Tumor volume was determined by caliper measurements (mm) and using the formula for an ellipsoid sphere: L×W^2/2=mm^3, where L and W refer to the larger and smaller perpendicular dimensions collected at each measurement. […]

C57BL/6 mice = test: Mouse Study I: protection from MTX-induced weight loss (LPS/MTX model); type: in vivo; settings: 10 or 30 mg/kg ip 3 hr before and after MTX; LPS+MTX treated mice
Method: C57BL/6 mice (10 animals/treatment group) were dosed on Day 1 with LPS (5 μg, i.p.). On Day 2, the animals were treated with 200 mg/kg MTX+10 or 30 mg/kg TK-112690 3 hr before and 3 hr after the MTX treatment. On Day 3, the animals were dosed MTX 100 mg/kg+10 or 30 mg/kg TK±3 hr. On day 8, the Day 8-Day 1 weight was determined and results subject to ANOVA. Group 1=saline alone, Group 2=MTX alone, Group 3=LPS alone, Group 4=MTX+LPS, Group 5=10 mg/kg TK-112690+MTX+LPS or Group 6=30 mg/kg TK-112690+MTX+LPS.
This mouse model is modified from a published procedure (de Koning et al., Int Immunol 18: 941 (2006)). Mice are treated on day one with a single intraperitoneal (ip) dose of lipopolysaccharide (LPS), followed by two consecutive days with 200 and 100 mg/kg ip methotrexate, respectively. Controls include saline alone for days 1, 2, and 3, saline on day 1 plus MTX on days 2 and 3 and LPS on day one with saline injection on days 2 and 3. Experimental groups are given LPS on day one and 10 or 30 mg/kg, TK-112690, a representative 2,2′-anhydropyrimidine test article, ip 3 hours before, and 3 hours after, methotrexate injection on days 2 and 3. Animal weights are measured every day after the first injection with experiment termination five days after the second methotrexate injection (day 8). Weight loss is representative of MTX-induced toxicity, and one aspect of MTX-induced mucositis. […]

## Cc1cn2c(nc1=O)O[C@H]1[C@H](O)[C@@H](CO)O[C@H]12 [TK-112690, 2,2′-anhydro-5-methyluridine]
[1]
  tumor volumes Day 21, MTX+TK-112690 vs MTX: no statistical difference
C57BL/6 mice
  protection from MTX-induced weight loss (Day 8-Day 1 weight): highly significant
